Experiment [1] has as its system Echinochloa crus-galli var. oryzicola. The experiment in a line: Test Example 2: concrete pot test on killing effect, Echinochloa crus-galli var. oryzicola. The class given is in vivo. To be noted: Echinochloa crus-galli, 720 h; for inhibition at 9000 g/ha: 900 g/10 are. As for the experimental part: (§1) In a Wagner pot of 1/500 are, paddy field soil (alluvial soil) was placed and 50 seeds of Echinochloa crus-galli var. oryzicola and 30 seeds of paddy rice were seeded in the surface layer of said soil and the submerging depth was kept at about 1 cm. When Echinochloa crus-galli var. oryzicola reached at the one leaf stage and 5-leaf stage, the emulsion of a predetermined concentration, prepared according to Example 4 was added dropwise. After 30 days from the treatment with the chemical, dry weights of Echinochloa crus-galli var. oryzicola and paddy rice were measured and the inhibition rate was calculated with reference to untreated area. [formula]
(§2) In a concrete pot of 1/400 are (50 cm×50 cm), paddy field soil (alluvial soil) was placed and 200 seeds of Echinochloa crus-galli var. oryzicola were seeded in 10 surface layer of said soil and the soil was submerged at about 3 cm depth. Before emergence of Echinochloa crus-galli var. oryzicola, paddy rice at 2.5-leaf stage (Asahi species) was transplanted at the rate of 8 stubs per pot, planting 3 seedlings per stub. At the one-leaf stage (3.5 leaves stage of paddy rice) and 5 leaves stage (7 leaves stage of paddy rice) of Echinochloa crus-galli var. oryzicola, the granule prepared according to Example 1 was applied. […] 30 Days after the treatment with the chemical, examination was made in the similar manner as Test Example 1 to obtain results as shown in Table 2.
(§3) In the table, as the comparative chemicals CPN, Benthiocarb, Molinate and Simetryne, those commercially available were used and the comparative chemicals A and B (as mentioned before) used were prepared according to the process for preparing the compound of this invention.

The test system of experiment [2] is paddy rice. The experiment in a line: whole plant or invertebrate. To be noted: Oryza sativa, 720 h; for inhibition at 9000 g/ha: 900 g/10 are. The class given is in vivo, paddy rice (Asahi species). As for the experimental part: as §1, §2, §3
In experiment [3] the test system is Echinochloa crus-galli var. oryzicola. The experiment in a line: Test Example 1: pot test on selectivity, inhibition of Echinochloa crus-galli var. oryzicola. The experiment is classed as in vivo. To be noted: dry weight 30 days after treatment; for inhibition at 750 g/ha / inhibition at 1500 g/ha / inhibition at 3000 g/ha / inhibition at 6000 g/ha / inhibition at 9000 g/ha: Echinochloa crus-galli, 720 h. As for the experimental part: as §1
(§4) The comparative chemicals used, i.e. DCMU and Linuron, were those commercially available, and the comparative chemicals A and B used were prepared according to the process for formulating the compound of this invention.

In experiment [4] the test system is paddy rice. The experiment in a line: Test Example 1: pot test on selectivity, inhibition of paddy rice. The experiment is classed as in vivo. To be noted: dry weight 30 days after treatment. As to the method: In a Wagner pot of 1/500 are, paddy field soil (alluvial soil) was placed and 50 seeds of Echinochloa crus-galli var. oryzicola and 30 seeds of paddy rice were seeded in the surface layer of said soil and the submerging depth was kept at about 1 cm. […] After 30 days from the treatment with the chemical, dry weights of Echinochloa crus-galli var. oryzicola and paddy rice were measured and the inhibition rate was calculated with reference to untreated area. [formula]
as §4

Setting [5] is: read-out: Inhibition (%) by treatment at 1-leaf stage of E. crus-galli var. oryzicola, E. crus-galli var. oryzicola.
The mark [6] stands for this setting: read-out: Inhibition (%) by treatment at 5-leaf stage of E. crus-galli var. oryzicola, E. crus-galli var. oryzicola.
[7] abbreviates: read-out: Inhibition (%) by treatment at 1-leaf stage of E. crus-galli var. oryzicola, paddy rice.
Setting [8] is: read-out: Inhibition (%) by treatment at 5-leaf stage of E. crus-galli var. oryzicola, paddy rice.

Where two headings read alike, the source gives them in different places.

Consider 4 compounds from patent publication US4255183A, “Substituted phenyl urea and herbicides for use in paddy field” (Hokko Chemical Industry Co., Ltd., priority 1977, dated 1981).

Regarding `O=[N+]([O-])c1ccc(Oc2c(Cl)cc(Cl)cc2Cl)cc1` [CNP, 2,4,6-trichlorophenyl-4'-nitrophenylether], the inhibition (as a rule, the relative decrease from the control value, in per cent) at 1000 g/ha in experiment [1] (100 g/10 are, granule, 30 days after treatment, read-out: Inhibition (%) by treatment at 1-leaf stage of E. crus-galli var. oryzicola, E. crus-galli var. oryzicola) turned out to be 65%; in experiment [1] (100 g/10 are, granule, 30 days after treatment, read-out: Inhibition (%) by treatment at 5-leaf stage of E. crus-galli var. oryzicola, E. crus-galli var. oryzicola), 0%; in the experiment on paddy rice [2] (100 g/10 are, granule, rice at 3.5 leaves stage, 30 days, read-out: Inhibition (%) by treatment at 1-leaf stage of E. crus-galli var. oryzicola, paddy rice), 0%; in the experiment with paddy rice [2] (100 g/10 are, granule, rice at 7 leaves stage, 30 days, read-out: Inhibition (%) by treatment at 5-leaf stage of E. crus-galli var. oryzicola, paddy rice), 0%. The inhibition at 3000 g/ha in experiment [1] (300 g/10 are, granule, 30 days after treatment, read-out: Inhibition (%) by treatment at 1-leaf stage of E. crus-galli var. oryzicola, E. crus-galli var. oryzicola) was found to be 100%; in experiment [1] (300 g/10 are, granule, 30 days after treatment, read-out: Inhibition (%) by treatment at 5-leaf stage of E. crus-galli var. oryzicola, E. crus-galli var. oryzicola), 0%; in the experiment with paddy rice [2] (300 g/10 are, granule, rice at 3.5 leaves stage, 30 days, read-out: Inhibition (%) by treatment at 1-leaf stage of E. crus-galli var. oryzicola, paddy rice), 8%; in the experiment with paddy rice [2] (300 g/10 are, granule, rice at 7 leaves stage, 30 days, read-out: Inhibition (%) by treatment at 5-leaf stage of E. crus-galli var. oryzicola, paddy rice), 0%. For the same compound, the inhibition at 9000 g/ha came to 100% in experiment [1] (granule, 30 days after treatment, read-out: Inhibition (%) by treatment at 1-leaf stage of E. crus-galli var. oryzicola, E. crus-galli var. oryzicola); 0% in experiment [1] (granule, 30 days after treatment, read-out: Inhibition (%) by treatment at 5-leaf stage of E. crus-galli var. oryzicola, E. crus-galli var. oryzicola); 52% with paddy rice [2] (granule, rice at 3.5 leaves stage, 30 days, read-out: Inhibition (%) by treatment at 1-leaf stage of E. crus-galli var. oryzicola, paddy rice); 0% in the experiment with paddy rice [2] (granule, rice at 7 leaves stage, 30 days, read-out: Inhibition (%) by treatment at 5-leaf stage of E. crus-galli var. oryzicola, paddy rice).
In the case of `CC=CCOc1ccc(NC(=O)N(C)C)cc1` [Mixture of trans- and cis-forms 1:4], the “Inhibition (%) by treatment at 1-leaf stage, E. crus-galli var. oryzicola” value in experiment [3] (75 g/10 are, 1-leaf stage) turned out to be 93%; in experiment [3] (150 g/10 are, 1-leaf stage), 100%; in experiment [3] (300 g/10 are, 1-leaf stage), 100%; in experiment [3] (600 g/10 are, 1-leaf stage), 100%; in experiment [3] (900 g/10 are, 1-leaf stage), 100%. Moreover, the “Inhibition (%) by treatment at 5-leaf stage, E. crus-galli var. oryzicola” value is 84% in experiment [3] (75 g/10 are, 5-leaf stage); 100% in experiment [3] (150 g/10 are, 5-leaf stage); 100% in experiment [3] (300 g/10 are, 5-leaf stage); 100% in experiment [3] (600 g/10 are, 5-leaf stage); 100% in experiment [3] (900 g/10 are, 5-leaf stage). The “Inhibition (%) by treatment at 1-leaf stage, paddy rice” value in the experiment on paddy rice [4] (75 g/10 are, 1-leaf stage) amounted to 0%; in the experiment on paddy rice [4] (150 g/10 are, 1-leaf stage), 0%; in the experiment on paddy rice [4] (300 g/10 are, 1-leaf stage), 0%; in the experiment with paddy rice [4] (600 g/10 are, 1-leaf stage) it was 0%; in the experiment with paddy rice [4] (900 g/10 are, 1-leaf stage) it was 4%. Also, the “Inhibition (%) by treatment at 5-leaf stage, paddy rice” value is recorded as 0% with paddy rice [4] (75 g/10 are, 5-leaf stage); 0% in the experiment on paddy rice [4] (150 g/10 are, 5-leaf stage); 0% in the experiment with paddy rice [4] (300 g/10 are, 5-leaf stage); 0% in the experiment with paddy rice [4] (600 g/10 are, 5-leaf stage); 0% in the experiment on paddy rice [4] (900 g/10 are, 5-leaf stage).
Take `CC=CCOc1ccc(NC(=O)N(C)C)cc1` [Mixture of trans- and cis-forms 4:1]: the inhibition at 750 g/ha in experiment [3] (75 g/10 are, 1-leaf stage, read-out: Inhibition (%) by treatment at 1-leaf stage, E. crus-galli var. oryzicola) amounted to 94%; in experiment [3] (75 g/10 are, 5-leaf stage, read-out: Inhibition (%) by treatment at 5-leaf stage, E. crus-galli var. oryzicola) it was 80%; with paddy rice [4] (Oryza sativa, 720 h, 75 g/10 are, 1-leaf stage, read-out: Inhibition (%) by treatment at 1-leaf stage, paddy rice), 0%; with paddy rice [4] (Oryza sativa, 720 h, 75 g/10 are, 5-leaf stage, read-out: Inhibition (%) by treatment at 5-leaf stage, paddy rice) it was 0%. In addition, the inhibition at 1500 g/ha in experiment [3] (150 g/10 are, 1-leaf stage, read-out: Inhibition (%) by treatment at 1-leaf stage, E. crus-galli var. oryzicola) was determined as 100%; in experiment [3] (150 g/10 are, 5-leaf stage, read-out: Inhibition (%) by treatment at 5-leaf stage, E. crus-galli var. oryzicola), 100%; in the experiment on paddy rice [4] (Oryza sativa, 720 h, 150 g/10 are, 1-leaf stage, read-out: Inhibition (%) by treatment at 1-leaf stage, paddy rice) it was 0%; with paddy rice [4] (Oryza sativa, 720 h, 150 g/10 are, 5-leaf stage, read-out: Inhibition (%) by treatment at 5-leaf stage, paddy rice), 0%. Besides, the inhibition at 3000 g/ha in experiment [3] (300 g/10 are, 1-leaf stage, read-out: Inhibition (%) by treatment at 1-leaf stage, E. crus-galli var. oryzicola) stood at 100%; in experiment [3] (300 g/10 are, 5-leaf stage, read-out: Inhibition (%) by treatment at 5-leaf stage, E. crus-galli var. oryzicola) it was 100%; in the experiment with paddy rice [4] (Oryza sativa, 720 h, 300 g/10 are, 1-leaf stage, read-out: Inhibition (%) by treatment at 1-leaf stage, paddy rice), 0%; in the experiment on paddy rice [4] (Oryza sativa, 720 h, 300 g/10 are, 5-leaf stage, read-out: Inhibition (%) by treatment at 5-leaf stage, paddy rice), 0%. For the same compound, the inhibition at 6000 g/ha in experiment [3] (600 g/10 are, 1-leaf stage, read-out: Inhibition (%) by treatment at 1-leaf stage, E. crus-galli var. oryzicola) is 100%; in experiment [3] (600 g/10 are, 5-leaf stage, read-out: Inhibition (%) by treatment at 5-leaf stage, E. crus-galli var. oryzicola), 100%; in the experiment on paddy rice [4] (Oryza sativa, 720 h, 600 g/10 are, 1-leaf stage, read-out: Inhibition (%) by treatment at 1-leaf stage, paddy rice), 0%; in the experiment on paddy rice [4] (Oryza sativa, 720 h, 600 g/10 are, 5-leaf stage, read-out: Inhibition (%) by treatment at 5-leaf stage, paddy rice) it was 0%. Moreover, the inhibition at 9000 g/ha was determined as 100% in experiment [3] (900 g/10 are, 1-leaf stage, read-out: Inhibition (%) by treatment at 1-leaf stage, E. crus-galli var. oryzicola); 100% in experiment [3] (900 g/10 are, 5-leaf stage, read-out: Inhibition (%) by treatment at 5-leaf stage, E. crus-galli var. oryzicola); 0% with paddy rice [4] (Oryza sativa, 720 h, 900 g/10 are, 5-leaf stage, read-out: Inhibition (%) by treatment at 5-leaf stage, paddy rice). In addition, in the experiment with paddy rice [4] (900 g/10 are, 1-leaf stage), the “Inhibition (%) by treatment at 1-leaf stage, paddy rice” value stood at 1%.
Regarding `CCNc1nc(NCC)nc(SC)n1` [Simetryne, 2,4-bis(ethylamino)-6-methylthio-1,3,5-triazine], the inhibition at 300 g/ha in experiment [1] (setting [5]) was found to be 20%; in experiment [1] (setting [6]), 0%; in the experiment on paddy rice [2] (setting [7]), 0%; with paddy rice [2] (setting [8]) it was 0%. Moreover, the inhibition at 1000 g/ha in experiment [1] (setting [5]) was 100%; in experiment [1] (setting [6]), 7%; in the experiment on paddy rice [2] (setting [7]), 74%; with paddy rice [2] (setting [8]), 17%. Moreover, the inhibition at 3000 g/ha in experiment [1] (setting [5]) amounted to 100%; in experiment [1] (setting [6]), 36%; in the experiment on paddy rice [2] (setting [7]), 100%; in the experiment on paddy rice [2] (setting [8]), 46%.
